Reference: US10472330B2, “Substituted triazenes protected from degradation by carboxylation of N1” (ARIZONA BOARD OF REGENTS ON BEHALF OF THE UNIVERSITY OF …, priority 2015, dated 2019)

Assays:
[1] = target: Bovine serum albumin (BSA) (Bos taurus, UniProt P02769); assay: BSA labeling (gel fluorescence) after acidification; format: biochemical; settings: 10 μM BSA, 10 μM compound after acidification at pH 2 for 0-60 min, then pH 8.8, 0° C., 1 hour
Method: To 10 μM solution of BSA in 100 mM Tris-Cl pH 8.8 was added 10 μM of Compound 53 after acidification (100 mM Tris-Cl pH 2) for 0, 1, 10, 30, or 60 minutes. […] The reaction was then allowed to proceed at 0° C. for 1 hour prior to loading onto a gel.
Bovine serum albumin (BSA) was used as a model protein to help assess the ability of Compound 53 to label proteins. BSA is known to bind to small molecules. Compound 53 was subjected to acid for varying times and then added to a solution of BSA at a pH sufficient to minimize background release of the diazonium ion (FIG. 11C). […] It is possible that this indicates a cleavage of the azobenzene linkage; however, the fluorescence could be quenched by reduction at several locations. To assess whether the standard azobenzene reduction is operative with these compounds, the resulting amino phenol may be oxidized and the ortho-iminoquinone may be trapped via established Diels-Alder chemistry. In some embodiments, molecules of the present invention can help distinguish between tyrosine and histidine modifications.

[2] = not pH dependent in the physiological range; cited from earlier work
[3] = E/Z photoisomerization and thermal Z to E reversion; format: physicochemical; settings: MeOD
[4] = Stability in DMSO with excess acetic acid, with or without light; format: physicochemical
Method: (§1) It is possible that Compound A may be useful as a photo-catalytic base in the context of organic reactions. […] As noted previously, Compound A is quite stable to an excess of acetic acid in DMSO, showing only 12% degradation over 14 hours at room temperature. […] To confirm that this was due to the acid, a solution of Compound A (in pure DMSO) was irradiated. After four hours of constant irradiation in acid-free DMSO, an E:Z ratio of nearly 50:50 was observed.

[5] = Resorcinol trapping of diazonium species (Sudan Orange G formation); format: physicochemical; settings: excess resorcinol, pH 9 borate buffer
Source text: (§2) Referring to FIG. 5A, in some embodiments, triazabutadiene molecules of the present invention may readily photoisomerize to a more reactive Z-form. As an example, an aqueous solution of Compound A was irradiated with a simple hand-held UV lamp (“365 nm,” measured at 350 nm). Consumption of Compound A was observed after only a few hours. […] Without wishing to limit the present invention to any theory or mechanism, it was hypothesized that if a two-electron process were happening, then Compound A-Z would be more basic than Compound A-E. A 1.0 N NaOH solution of Compound A was treated with light. […] Benzene diazonium ions also absorb UV light to expel nitrogen and generate a benzene radical. In order to resolve if the initial cleavage undergoes a radical homolytic mechanism versus a two-electron heterolytic mechanism, a trapping experiment using resorcinol was conducted. (Resorcinol was chosen because it can serve a dual role as a radical scavenger and a trap benzene diazonium species that could be formed.) An excess of resorcinol was added to a pH 9 borate-buffered solution of Compound A and the mixture was irradiated with light. The known azobenzene, Sudan Orange G, was formed in a 65% yield (versus 4% for the non-irradiated reaction). Derivatives of Compound A were made to examine the effects of electronic perturbations on the light-induced degradation. […]

[6] = Solubility observations; format: physicochemical; settings: organic solvents
Method: as §1
As another non-limiting example, an azide (e.g., NHS-azide) to N-heterocyclic carbene (NHC) route may be used to synthesize triazabutadiene molecules (e.g., see FIG. 6C). For example, as shown in Compound 4 of FIG. 6D, a triazabutadiene molecule was synthesized from dimethyl imidazole derived NHC and phenyl azide. […] This change was confirmed to coincide with diazonium formation by trapping the reactive species with resorcinol to provide known diazo dye Sudan Orange G. When the triazabutadiene molecule (Compound 4) was treated with the much less acidic acetic acid, the same product was obtained.
To render the triazabutadiene water-soluble, methyl imidazole was alkylated with propane sultone to provide the Zwitterionic NHC precursor Compound 5a (see FIG. 6E). […] Compound 6a was highly colored, so its pH dependence was studied using UV/vis. The reactions were not only pH-, but also scan-frequency dependent. Upon finding this, the stability of Compound 6a was studied in D2O in the dark using NMR. Even in the dark it was unstable, but not in the diazonium-forming way. Both Compound 6b and a more hindered mesityl (Mes) substituted Compound 6c (see FIG. 6E) were synthesized to stabilize what was initially considered to be a rearrangement pathway that could be blocked by steric repulsion. […] Dissolution in 0.1 N NaOH rendered all compounds stable (e.g., no detectable degradation after 24 hours in the dark).
To further examine the reactivity of this class of compounds, variants Compound 6d and Compound 6e were synthesized (see FIG. 6G). It was hypothesized that the p-methoxy and p-nitro analogs (Compound 6d and Compound 6e, respectively) would display different reactivity profiles. […] After collecting the precipitate and dissolving it in deuterated methanol, no change was observed from a sample of Compound 6e that had never been exposed to a buffered solution. […] It is possible that: 1) that the sodium salt of Compound 6e is much less soluble than the potassium salt; or 2) with different solvating ions present the sulfonate interacts with the electron-poor N2 nitrogen atom of the triazabutadiene to break conjugation and form an insoluble complex (this is backed by a reversible color change of the starting rust-red solid, to the light yellow precipitate). […]

[7] = Photo-induced degradation of triazabutadienes under hand-held UV lamp, followed by NMR; format: physicochemical
Method: (i) The reaction was monitored by comparing starting materials (A, C, D, and E) with product (B); (ii) Peak absorption and extinction coefficients for all of the compounds were excitable by the UV source used; (iii) Time-dependent conversion of compounds was measured by NMR integration.
Referring to FIG. 5A, in some embodiments, triazabutadiene molecules of the present invention may readily photoisomerize to a more reactive Z-form. As an example, an aqueous solution of Compound A was irradiated with a simple hand-held UV lamp (“365 nm,” measured at 350 nm). Consumption of Compound A was observed after only a few hours. […] Without wishing to limit the present invention to any theory or mechanism, it was hypothesized that if a two-electron process were happening, then Compound A-Z would be more basic than Compound A-E. A 1.0 N NaOH solution of Compound A was treated with light. […] Benzene diazonium ions also absorb UV light to expel nitrogen and generate a benzene radical. In order to resolve if the initial cleavage undergoes a radical homolytic mechanism versus a two-electron heterolytic mechanism, a trapping experiment using resorcinol was conducted. (Resorcinol was chosen because it can serve a dual role as a radical scavenger and a trap benzene diazonium species that could be formed.) An excess of resorcinol was added to a pH 9 borate-buffered solution of Compound A and the mixture was irradiated with light. The known azobenzene, Sudan Orange G, was formed in a 65% yield (versus 4% for the non-irradiated reaction). Derivatives of Compound A were made to examine the effects of electronic perturbations on the light-induced degradation. […] A buffered borate solution was chosen due to its alkaline nature and lack of complicating signals in the NMR experiment. Compounds C-E all have absorption spectra that are well within the range of the UV lamp (see FIG. 5A(ii)).

[8] = Stability of non-irradiated (dark) aqueous solutions; format: physicochemical
Source text: as §2

[9] = In situ real-time pH measurement upon UV irradiation; format: physicochemical; settings: water, pH adjusted to 9 before irradiation, over several minutes
Method: In an effort to examine the rate order for the pH-increasing reaction more carefully, in situ, real-time pH measurements were acquired. Compound A was dissolved in water and the pH of the solution was adjusted to 9 such that it would not form Compound B in the absence of light. […] This spike was not at all consistent with the model of the pH increase being solely linked to the concentration of Compound B being generated.
A sample was irradiated and then the light was turned off once the pH of the solution started to increase noticeably. […] The experiment was repeated with increasing times of irradiation, and a saw-tooth pattern was obtained. The process was not completely reversible due to some degradation to Compound B. Indeed, triazabutadiene Compound A can serve a dual role of being a photo-masked base (see FIG. 4B(i)), and a base whose intrinsic functional group properties are altered photochemically (FIG. 4B(iii)).
Referring to FIG. 5A(iii), Compound C and Compound D were examined in an effort to find a base that was reversibly basic but also more resistant to degradation.

Sequence of Bovine serum albumin (BSA) (P02769 25-607): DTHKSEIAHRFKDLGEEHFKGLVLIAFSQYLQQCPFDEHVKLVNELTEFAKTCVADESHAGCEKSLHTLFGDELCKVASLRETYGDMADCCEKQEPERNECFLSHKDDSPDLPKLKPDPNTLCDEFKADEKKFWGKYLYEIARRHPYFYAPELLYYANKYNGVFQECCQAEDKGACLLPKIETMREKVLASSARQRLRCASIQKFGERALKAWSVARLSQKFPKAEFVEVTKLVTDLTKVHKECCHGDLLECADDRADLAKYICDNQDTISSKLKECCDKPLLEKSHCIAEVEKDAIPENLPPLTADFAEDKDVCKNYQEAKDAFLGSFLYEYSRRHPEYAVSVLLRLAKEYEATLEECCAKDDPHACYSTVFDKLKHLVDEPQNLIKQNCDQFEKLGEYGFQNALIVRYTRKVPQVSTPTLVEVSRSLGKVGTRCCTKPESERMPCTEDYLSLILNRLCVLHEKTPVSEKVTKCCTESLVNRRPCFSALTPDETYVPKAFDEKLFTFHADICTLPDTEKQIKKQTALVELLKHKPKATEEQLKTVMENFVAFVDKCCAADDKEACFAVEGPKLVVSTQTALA

Cc1cc(C)c(-n2ccn(CCCS(=O)(=O)O)c2=NN=Nc2ccc3c(C(F)(F)F)cc(=O)oc3c2)c(C)c1 [Compound 53]
Labeling of BSA [1]: labeled in a pH dependent manner

N#[N+]c1ccccc1 [benzenediazonium]
Half-life of first-order degradation to phenol [2]: ~4 h

Cc1cc(C)c(-n2ccn(CCCS(=O)(=O)[O-])c2=NN=Nc2ccccc2)c(C)c1.[K+] [Compound A]
Rate of first-order thermal isomerization [3]: 3e-05 s⁻¹
Degradation with excess acetic acid in DMSO ([4]; 14 hours, room temperature, no light): 12%
Degradation with acetic acid in DMSO upon irradiation ([4]; irradiation with light, same time frame (14 hours)): completely fell apart
Sudan Orange G yield, irradiated ([5]; irradiated with light): 65%
Sudan Orange G yield, non-irradiated ([5]; non-irradiated reaction): 4%
Solubility in organic solvents [6]: limited solubility in all but DMSO
Consumption of starting material under constant irradiation at pH 14 ([7]; 1.0 N NaOH, pH 14, 20 hours constant irradiation): near complete consumption
Consumption on UV irradiation (time) ([7]; aqueous solution, hand-held UV lamp (365 nm, measured at 350 nm)): a few hours
Stability at pH 14 in the dark ([8]; 1.0 N NaOH solution, pH 14, dark): stable for weeks
Stability of non-irradiated reaction ([8]; aqueous solution, similar conditions, no irradiation): stable for days
pH of solution upon exposure to 350 nm light [9]: ~10
